Results taken from PubChem BioAssay (NCI).
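Test compounds were applied to cells in 96-well plates for 48 hours at 5 doses. Abbreviation: GI50, concentration required for 50% inhibition of growth. TGI: concentration producing complete growth inhibition.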

What was measured:
Experiment in all cases: NCI tumour cell line growth inhibition, 48 h
MOLT-4 leukemia = test system: MOLT-4 leukemia
HCT-15 colon = test system: HCT-15 colon
HOP-62 NSCLC = test system: HOP-62 NSCLC
ACHN renal = test system: ACHN renal
MDA-MB-435 = test system: MDA-MB-435
UO-31 renal = test system: UO-31 renal
SK-MEL-5 melanoma = test system: SK-MEL-5 melanoma
IGROV1 ovarian = test system: IGROV1 ovarian

SMILES | GI50 (MOLT-4 leukemia) [µM] | TGI (MOLT-4 leukemia) [µM] | GI50 (HCT-15 colon) [µM] | TGI (HCT-15 colon) [µM] | GI50 (HOP-62 NSCLC) [µM] | TGI (HOP-62 NSCLC) [µM] | GI50 (ACHN renal) [µM] | TGI (ACHN renal) [µM] | GI50 (MDA-MB-435) [µM] | TGI (MDA-MB-435) [µM] | GI50 (UO-31 renal) [µM] | TGI (UO-31 renal) [µM] | GI50 (SK-MEL-5 melanoma) [µM] | TGI (SK-MEL-5 melanoma) [µM] | GI50 (IGROV1 ovarian) [µM] | TGI (IGROV1 ovarian) [µM]
O=C1c2ccccc2C(=Cc2ccccc2)c2ccccc21 | 4.74 | > 100 | 2.16 | 21.8 | 2.62 | 10.2 | 3.89 | 13.4 | 0.31 | 11.9 | 2.1 | 10.2 | 2.77 | 10.9 | 2.35 | 11.4
C/C(=C\C1=C(Cl)C(=O)c2ccccc2C1=O)C(=O)O | 28.2 | > 100 | 18.2 | 36.5 | 18.8 | 33.7 | 18.5 | 32.7 | 19.4 | 34.8 | 15.5 | 28.9 | 17.5 | 31.3 | 15.1 | 28.6
Oc1ccc(O)c(-c2cc(-c3ccccc3)nn2-c2ccccc2)c1 | 60.5 | > 100 | 17 | 42.6 | 16.8 | 32.3 | 14.4 | 29.7 | 18.4 | > 100 | 38.6 | > 100 | 30.7 | > 100 | > 100 | > 100
Cn1cc(C2=C(c3cccnc3)C(=O)NC2=O)c2ccccc21 | > 21.6 | > 25 | > 25 | > 25 | > 21.9 | > 25 | 14.1 | > 25 | > 25 | > 25 | > 25 | > 25 | > 12 | > 22.5 | 24.3 | > 25
Cc1cc(C2=NNC(=O)Cc3cc4c(cc32)OCCO4)cc(C)c1N | 3.97 | > 100 | 1.25 | > 100 | 2.72 | > 100 | 6.48 | > 100 | 0.261 | 0.978 | 3.83 | > 100 | 1.22 | > 100 | 3 | > 100
O=S(=O)(O)c1ccc(-c2nnc(-c3ccccn3)nc2-c2ccc(S(=O)(=O)O)o2)o1 | – | > 100 | – | > 100 | – | > 100 | – | > 100 | – | > 100 | – | > 100 | – | > 100 | – | > 100
COc1cnc2c(c1)C(=O)c1c-2n(CCCN2CCC(O)CC2)c(=O)c2cc(F)ccc12 | 0.0445 | 0.337 | – | – | 0.142 | 0.645 | 0.0902 | 0.332 | 0.382 | 5.72 | 0.135 | 0.619 | 0.201 | 0.628 | 0.301 | 2.24
CC(=O)OCC(=O)O[C@@H]1C[C@]2(C(C)C)O[C@@]1(C)[C@@H]1CC[C@@H](C)[C@H]1[C@@H]2OC(=O)/C=C/c1ccccc1 | 20.3 | > 100 | 17.8 | > 100 | 17.3 | 45.2 | 0.0316 | 12.5 | 22 | 59.7 | 0.0336 | 0.242 | 15.5 | 31.5 | 42.5 | > 100
O=C(CF)N(O)c1ccc(/C=C/c2ccccc2)cc1 | 2.72 | > 100 | 13.3 | > 100 | 5.91 | 32.2 | 0.736 | 30 | 8.48 | > 100 | 3.58 | 26.2 | 14.4 | > 100 | 2.53 | 13
Cn1nnnc1N/N=C/c1ccccc1 | – | > 10 | – | > 10 | – | > 10 | – | > 10 | – | > 10 | – | > 10 | – | > 10 | – | > 10
Cc1cccc(C(=O)/C=C/SC(=NC#N)SCc2ccccc2)c1 | 6.72 | > 100 | 39.1 | > 100 | 23.2 | 45.4 | 25.6 | 67 | 23.1 | 72.1 | 30.9 | 89 | 14.7 | 32.9 | 21.4 | 61.5
O=C1C2=Nc3ccccc3C(O)N2c2ccccc21 (stereo not drawn) | – | > 100 | – | > 100 | – | > 100 | – | > 100 | – | 6.29 | – | > 100 | – | 3.76 | – | > 100
O=C(Nc1ccc(Cl)cc1F)c1cc(I)ccc1O | 2.41 | 6.89 | 2.41 | 10.2 | 2.35 | 8.04 | 1.81 | 10.1 | 2.08 | 7.9 | 0.385 | 3.18 | 1.12 | 2.53 | 1.51 | 50.4
C=CC[P+](c1ccccc1)(c1ccccc1)c1ccccc1 | 5.07 | > 100 | > 100 | > 100 | 12.1 | > 100 | > 100 | > 100 | 2.07 | 19.3 | 84 | > 100 | 1.6 | 5.27 | 9.74 | > 100
C=CC(C)(O)/C=C/C=C(\C)C(CC1OC1(C)C)OC(=O)/C(C)=C\C (stereo not drawn) | – | > 100 | – | > 100 | – | > 100 | – | > 100 | – | > 100 | – | > 100 | – | > 100 | – | > 100
COC(=O)c1ccc(NC(=O)Nc2ccc3oc(=O)c4ccccc4c3c2)cc1 | 17.6 | 62.1 | > 100 | > 100 | 17.8 | 39.6 | 29.5 | > 100 | 27.9 | 89.3 | 62.5 | > 100 | 5.21 | 17.3 | 37.8 | > 100
CC/C=C\C/C=C\C[C@H](O)C/C=C1/C(=O)C=C[C@@H]1C/C=C\CCCC(=O)O | 2.83 | 11.8 | 3.47 | 15.6 | 2.77 | 7.4 | 4.84 | 18.5 | 3.1 | 12 | 5.99 | 20.3 | 2.42 | 5.98 | 6.78 | 25.9
Cn1c(O)c(C(/C=C/c2ccccc2)=NCCN=C(/C=C/c2ccccc2)c2c(O)n(C)c(=O)n(C)c2=O)c(=O)n(C)c1=O | 15.8 | > 50 | 14.5 | > 50 | 23.4 | > 50 | 21.2 | > 50 | 18 | > 50 | 23.3 | > 50 | 11.4 | 29.5 | 20.7 | > 50
O=C(O)CCC(=O)c1ccc2ccc3cccc4ccc1c2c34 | – | > 100 | – | > 100 | – | > 100 | – | > 100 | – | > 100 | – | > 100 | – | > 100 | – | > 100
O=C(Nc1ccc(Oc2ccc3nc(NC(=O)c4ccccc4)[nH]c3c2)cc1)Nc1cc(C(F)(F)F)ccc1F | 0.68 | 3.83 | 2.07 | > 25 | 0.871 | 6.65 | 1.84 | > 25 | 0.709 | 2.94 | 1.31 | 15.6 | 0.543 | 1.83 | 1.47 | > 21.1
COC(=O)[C@]12CC[C@@H](C)[C@H](C)[C@@H]1C1=CC[C@@H]3[C@@]4(C)C(C=O)=C[C@@](C)(COC(=O)c5ccco5)[C@@H]4C(=O)C[C@@]3(C)[C@]1(C)CC2 | 2.08 | 7.8 | 3.96 | > 100 | 18.9 | > 100 | 1.22 | > 100 | 0.193 | 4.33 | 3.54 | > 100 | 0.294 | 1.45 | 7.66 | > 100
CN(C)c1ccc(/C=C(\C#N)c2nc3ccccc3n2C)cc1 | 7.03 | > 38 | 1.29 | > 87.6 | 13.8 | > 100 | 11.6 | > 100 | 0.251 | 3.13 | 6.96 | > 100 | 1.92 | 13.6 | 5.13 | > 100
O=[N+]([O-])c1ccc2c(N3CCC(CCCC4CCN(c5ncnc6cc([N+](=O)[O-])ccc56)CC4)CC3)ncnc2c1 | 24.8 | > 100 | > 50.6 | > 100 | > 32.2 | > 100 | > 48 | > 100 | > 40.7 | > 100 | 27.3 | > 100 | 0.156 | 11.8 | > 62.8 | > 100
CN(C)c1ccc(/C=C2\N=C(c3ccc([N+](=O)[O-])cc3)OC2=O)cc1 | – | > 100 | – | 45.4 | – | > 100 | – | > 100 | – | > 100 | – | – | – | > 100 | – | > 100
